According to patent publication US6387947B1, “Antimicrobial cosmetic compositions” (E-L Management Corp., priority 1997, dated 2002):
Entries after “also recorded” stand apart in the source; their conditions may differ.

Columns and labels:
Yeast = assay: microbial challenge of nonionic oil-in-water emulsion, pool 4; type: cell-based; conditions: for concentration of microbes: 0.473% in emulsion
Procedure: (§1) A nonionic oil-in-water emulsion is prepared containing 0.473% 3-furan carboxylic acid. The formulation is divided into five portions, each one getting an inoculation at day 0, and a reinoculation after three weeks, of one of the following microbial cultures: (1)Enterics; (2) Pseudomonas; (3)Staphylococcus; (4)Yeast; and (5)Mold. The concentration of microbes in each individual formulation is calculated on the day of the inoculation, and then again calculated on day 2, and at the end of one, two, three (pre-reinoculation) and four weeks, at a variety of pH values. These are also compared with formulations containing 2-furan carboxylic acid and an identical series of microbes, and an acid pH control emulsion without a furan carboxylic acid added. All numbers, other than those listed as “<10”, are log base 10; thus, for example, “6.6” is equivalent to the presence of […] bacteria. Entries of <10 indicate less than 10 colony forming units, the lowest level of detection.

[1] = antiirritant effect against Balsam of Peru on ventral forearms of volunteers; type: in vivo, human; conditions: 0.1% in hydroalcohol 1:1, applied twenty minutes before Balsam of Peru; Minolta Chromameter; seven volunteers
Procedure: Seven volunteers with a history of skin sensitivity to Balsam of Peru are chosen for the study.
The test compounds are applied to the ventral forearms of panelists. The material is allowed to absorb for twenty minutes and then Balsam of Peru, an irritant is applied on the test sites. Skin irritation is measured in terms of increase in skin redness. The degree of redness is measured with a Minolta Chromameter and compared with the controls, the positive control being skin treated with Balsam of Peru alone, and the negative control being a skin site treated with 10% cola solution(a known antiirritant), and challenged like the test products.

[2] = test system: lymphocyte adhesion to endothelial cells; assay: inhibition of lymphocyte adhesion to endothelial cells; type: cell-based, human
Procedure: Endothelial cells are grown to confluence and washed thoroughly with basal media prior to the experiment to remove all fetal calf serum. The test compounds are then added to the endothelial culture well and incubated for 2 hours. IL-1β is added to stimulated expression of adhesion molecules on the endothelial cells before lymphocytes are added. Lymphocytes are isolated from blood collected from adult human subjects and added to the endothelial culture wells. PHA is added to stimulate adhesion molecule expression in the lymphocytes and the cultures incubated overnight. After a brief washing procedure, cells are incubated with Rose Bengal, and the number of adherent cells assessed by measuring the absorbance at 570 nm.

[3] = test system: PLA2 enzyme obtained from snake venom; conditions: assay concentrations 0.01, 0.1 and 1 mg/ml
Procedure: The enzyme reaction is accomplished in a cuvette containing […] of phosphate buffered saline. Fluorometric substrate NBD-C6-HPC is solubilized 1 mM in EtOH, and is diluted in the reaction mixture to yield a 10 μM final concentration. The assay is initiated with the addition of 0.001 units per μl of PLA2 enzyme obtained from snake venom. Enzyme activity is monitored either with or without the presence of potential inhibitors. […] Prior to enzyme addition, samples are measured fluorometrically at excitation 470 and emission 570 to determine background level of fluorescensce. Following enzyme addition, samples are monitored every 15 minutes over a 60 minute period.

Staphylococcus = assay: microbial challenge of nonionic oil-in-water emulsion, pool 3; type: cell-based; conditions: for concentration of microbes: 0.473% in emulsion
Procedure: The formulation is divided into five portions, each one getting an inoculation at day 0, and a reinoculation after three weeks, of one of the following microbial cultures: (1)Enterics; (2) Pseudomonas; (3)Staphylococcus; (4)Yeast; and (5)Mold. The concentration of microbes in each individual formulation is calculated on the day of the inoculation, and then again calculated on day 2, and at the end of one, two, three (pre-reinoculation) and four weeks, at a variety of pH values. These are also compared with formulations containing 2-furan carboxylic acid and an identical series of microbes, and an acid pH control emulsion without a furan carboxylic acid added. All numbers, other than those listed as “<10”, are log base 10; thus, for example, “6.6” is equivalent to the presence of […] bacteria. Entries of <10 indicate less than 10 colony forming units, the lowest level of detection.

Enterics [4] = assay: microbial challenge of nonionic oil-in-water emulsion, pool 1; type: cell-based; conditions: 0.473% in emulsion
Pseudomonas [5] = assay: microbial challenge of nonionic oil-in-water emulsion, pool 2; type: cell-based; conditions: 0.473% in emulsion
Enterics [6] = assay: microbial challenge of nonionic oil-in-water emulsion, pool 1; type: cell-based; conditions: for concentration of microbes: 0.473% in emulsion
Procedure: as §1

Mold = assay: microbial challenge of nonionic oil-in-water emulsion, pool 5; type: cell-based; conditions: for concentration of microbes: 0.473% in emulsion
Procedure: as §1

Pseudomonas [7] = assay: microbial challenge of nonionic oil-in-water emulsion, pool 2; type: cell-based; conditions: for concentration of microbes: 0.473% in emulsion
Procedure: as §1

In the case of `O=C(O)c1ccoc1` [3-furan carboxylic acid], the “antimicrobial activity against yeast, in words” value (Yeast) is reported as “substantially reducing the growth; also recorded: superior to 2-furan carboxylic acid”, the concentration of microbes (Yeast; pH 3.0, Day 0) is reported as 5.7 log base 10 and the concentration of microbes (Yeast; pH 3.0, Day 2) is reported as less than 10 colony forming units. The concentration of microbes (Yeast; pH 3.0, Week 1) was less than 10 colony forming units, the concentration of microbes (Yeast; pH 3.0, Week 2) was less than 10 colony forming units and the concentration of microbes (Yeast; pH 3.0, Week 3) was less than 10 colony forming units. The concentration of microbes (Yeast; pH 3.0, Week 4) was less than 10 colony forming units, the concentration of microbes (Yeast; pH 4.0, Day 0) was 5.7 log base 10 and the concentration of microbes (Yeast; pH 4.0, Day 2) was 2.5 log base 10. For the same compound, the concentration of microbes (Yeast; pH 4.0, Week 1) was less than 10 colony forming units, the concentration of microbes (Yeast; pH 4.0, Week 2) was less than 10 colony forming units and the concentration of microbes (Yeast; pH 4.0, Week 3) was less than 10 colony forming units. It also gave a concentration of microbes (Yeast; pH 4.0, Week 4) of less than 10 colony forming units, a concentration of microbes (Yeast; pH 5.0, Day 0) of 5.7 log base 10 and a concentration of microbes (Yeast; pH 5.0, Day 2) of 2.5 log base 10. For the same compound, the concentration of microbes (Yeast; pH 5.0, Week 1) was 2.7 log base 10, the concentration of microbes (Yeast; pH 5.0, Week 2) was 1.7 log base 10 and the concentration of microbes (Yeast; pH 5.0, Week 3) was 2.0 log base 10. The concentration of microbes (Yeast; pH 5.0, Week 4) was 1.8 log base 10, the “effectiveness in preventing the onset of irritation (reduction of skin redness)” value [1] was 48% and the “inhibition of adhesion of polymorphonuclear leukocytes (PMNs) to activated endothelial cells, in words” value [2] was “ability to inhibit the adhesion”. The “inhibition of lymphocyte adhesion, in words (absorbance at 570 nm, Rose Bengal)” value ([2]; concentrations of 0.5% and 1%, IL-1β and PHA stimulated) was “very potent inhibitors of lymphocyte adhesion”, the “PLA2 inhibition, in words” value [3] was “exceptionally active” and the “antimicrobial activity against Staphylococcus, in words” value (Staphylococcus) was “capable of preventing growth”. The concentration of microbes (Staphylococcus; pH 3.0, Day 0) was 6.3 log base 10, the concentration of microbes (Staphylococcus; pH 3.0, Day 2) was less than 10 colony forming units and the concentration of microbes (Staphylococcus; pH 3.0, Week 1) was less than 10 colony forming units. It also gave a concentration of microbes (Staphylococcus; pH 3.0, Week 2) of less than 10 colony forming units, a concentration of microbes (Staphylococcus; pH 3.0, Week 3) of less than 10 colony forming units and a concentration of microbes (Staphylococcus; pH 3.0, Week 4) of less than 10 colony forming units. For the same compound, the concentration of microbes (Staphylococcus; pH 4.0, Day 0) was 6.3 log base 10, the concentration of microbes (Staphylococcus; pH 4.0, Day 2) was less than 10 colony forming units and the concentration of microbes (Staphylococcus; pH 4.0, Week 1) was less than 10 colony forming units. The concentration of microbes (Staphylococcus; pH 4.0, Week 2) was less than 10 colony forming units, the concentration of microbes (Staphylococcus; pH 4.0, Week 3) was less than 10 colony forming units and the concentration of microbes (Staphylococcus; pH 4.0, Week 4) was less than 10 colony forming units. For the same compound, the concentration of microbes (Staphylococcus; pH 5.0, Day 0) was 6.3 log base 10, the concentration of microbes (Staphylococcus; pH 5.0, Day 2) was less than 10 colony forming units and the concentration of microbes (Staphylococcus; pH 5.0, Week 1) was less than 10 colony forming units. It also gave a concentration of microbes (Staphylococcus; pH 5.0, Week 2) of less than 10 colony forming units, a concentration of microbes (Staphylococcus; pH 5.0, Week 3) of less than 10 colony forming units and a concentration of microbes (Staphylococcus; pH 5.0, Week 4) of less than 10 colony forming units. It also gave a concentration of microbes (Enterics [4]; pH 3.0, Day 0) of 6.6 log base 10, a concentration of microbes (Enterics [4]; pH 3.0, Day 2) of less than 10 colony forming units and a concentration of microbes (Enterics [4]; pH 3.0, Week 4) of less than 10 colony forming units. The concentration of microbes (Enterics [4]; pH 4.0, Day 2) was less than 10 colony forming units, the concentration of microbes (Enterics [4]; pH 4.0, Week 3) was less than 10 colony forming units and the concentration of microbes (Enterics [4]; pH 4.0, Week 4) was less than 10 colony forming units. For the same compound, the concentration of microbes (Enterics [4]; pH 5.0, Day 0) was 6.6 log base 10, the concentration of microbes (Enterics [4]; pH 5.0, Day 2) was less than 10 colony forming units and the concentration of microbes (Enterics [4]; pH 5.0, Week 2) was less than 10 colony forming units. It also gave a concentration of microbes (Enterics [4]; pH 5.0, Week 4) of less than 10 colony forming units, a concentration of microbes (Pseudomonas [5]; pH 3.0, Day 2) of less than 10 colony forming units and a concentration of microbes (Pseudomonas [5]; pH 3.0, Week 1) of less than 10 colony forming units. It also gave a concentration of microbes (Pseudomonas [5]; pH 3.0, Week 2) of less than 10 colony forming units, a concentration of microbes (Pseudomonas [5]; pH 3.0, Week 4) of less than 10 colony forming units and a concentration of microbes (Pseudomonas [5]; pH 4.0, Day 2) of less than 10 colony forming units. The concentration of microbes (Pseudomonas [5]; pH 4.0, Week 4) was less than 10 colony forming units, the concentration of microbes (Pseudomonas [5]; pH 5.0, Day 2) was less than 10 colony forming units and the concentration of microbes (Pseudomonas [5]; pH 5.0, Week 3) was less than 10 colony forming units. The “antimicrobial activity against Enterics, in words” value (Enterics [6]) was “capable of preventing growth”, the concentration of microbes (Enterics [6]; pH 3.0, Week 1) was less than 10 colony forming units and the concentration of microbes (Enterics [6]; pH 3.0, Week 2) was less than 10 colony forming units. It also gave a concentration of microbes (Enterics [6]; pH 3.0, Week 3) of less than 10 colony forming units, a concentration of microbes (Enterics [6]; pH 4.0, Day 0) of 6.6 log base 10 and a concentration of microbes (Enterics [6]; pH 4.0, Week 1) of less than 10 colony forming units. The concentration of microbes (Enterics [6]; pH 4.0, Week 2) was less than 10 colony forming units, the concentration of microbes (Enterics [6]; pH 5.0, Week 1) was less than 10 colony forming units and the concentration of microbes (Enterics [6]; pH 5.0, Week 3) was less than 10 colony forming units. For the same compound, the “antimicrobial activity against Mold, in words” value (Mold) was “capable of preventing growth; also recorded: superior to 2-furan carboxylic acid”, the concentration of microbes (Mold; pH 3.0, Day 0) was 5.2 log base 10 and the concentration of microbes (Mold; pH 3.0, Day 2) was less than 10 colony forming units. The concentration of microbes (Mold; pH 3.0, Week 1) was less than 10 colony forming units, the concentration of microbes (Mold; pH 3.0, Week 2) was less than 10 colony forming units and the concentration of microbes (Mold; pH 3.0, Week 3) was less than 10 colony forming units. For the same compound, the concentration of microbes (Mold; pH 3.0, Week 4) was less than 10 colony forming units, the concentration of microbes (Mold; pH 4.0, Day 0) was 5.2 log base 10 and the concentration of microbes (Mold; pH 4.0, Day 2) was less than 10 colony forming units. It also gave a concentration of microbes (Mold; pH 4.0, Week 1) of less than 10 colony forming units, a concentration of microbes (Mold; pH 4.0, Week 2) of less than 10 colony forming units and a concentration of microbes (Mold; pH 4.0, Week 3) of less than 10 colony forming units. The concentration of microbes (Mold; pH 4.0, Week 4) was less than 10 colony forming units, the concentration of microbes (Mold; pH 5.0, Day 0) was 5.2 log base 10 and the concentration of microbes (Mold; pH 5.0, Day 2) was less than 10 colony forming units. For the same compound, the concentration of microbes (Mold; pH 5.0, Week 1) was less than 10 colony forming units, the concentration of microbes (Mold; pH 5.0, Week 2) was less than 10 colony forming units and the concentration of microbes (Mold; pH 5.0, Week 3) was less than 10 colony forming units. For the same compound, the concentration of microbes (Mold; pH 5.0, Week 4) was less than 10 colony forming units, the “antimicrobial activity against Pseudomonas, in words” value (Pseudomonas [7]) was “capable of preventing growth” and the concentration of microbes (Pseudomonas [7]; pH 3.0, Week 3) was less than 10 colony forming units. The concentration of microbes (Pseudomonas [7]; pH 4.0, Week 1) was less than 10 colony forming units, the concentration of microbes (Pseudomonas [7]; pH 4.0, Week 2) was less than 10 colony forming units and the concentration of microbes (Pseudomonas [7]; pH 4.0, Week 3) was less than 10 colony forming units. For the same compound, the concentration of microbes (Pseudomonas [7]; pH 5.0, Week 1) was less than 10 colony forming units, the concentration of microbes (Pseudomonas [7]; pH 5.0, Week 2) was less than 10 colony forming units and the concentration of microbes (Pseudomonas [7]; pH 5.0, Week 4) was less than 10 colony forming units.
